Results from ChEMBL document CHEMBL1152860, “Synthesis and antiproliferative activity of 3-amino-N-phenyl-1H-indazole-1-carboxamides” (2009).

Key:
Format in all cases: functional
M14 = assay: Growth inhibition of human M14 cells after 48 hrs by SRB assay; details: M14, 48 h
SNB-19 = assay: Growth inhibition of human SNB19 cells after 48 hrs by SRB assay; details: SNB-19, 48 h
SW-620 = assay: Growth inhibition of human SW620 cells after 48 hrs by SRB assay; details: SW-620, 48 h
MOLT-4 = assay: Growth inhibition of human MOLT4 cells after 48 hrs by SRB assay; details: MOLT-4, 48 h
A549 = assay: Growth inhibition of human A549 cells after 48 hrs by SRB assay; details: A549, 48 h
MDA-MB-231 = assay: Growth inhibition of human MDA-MB-231 cells after 48 hrs by SRB assay; details: MDA-MB-231, 48 h
SF-539 = assay: Growth inhibition of human SF539 cells after 48 hrs by SRB assay; details: SF-539, 48 h
SR = assay: Growth inhibition of human SR cells after 48 hrs by SRB assay
SK-OV-3 = assay: Growth inhibition of human SKOV3 cells after 48 hrs by SRB assay; details: SK-OV-3, 48 h
COLO 205 = assay: Growth inhibition of human COLO205 cells after 48 hrs by SRB assay; details: COLO 205, 48 h
OVCAR-3 = assay: Growth inhibition of human OVCAR-3 cells after 48 hrs by SRB assay; details: OVCAR-3, 48 h
UACC-62 = assay: Growth inhibition of human UACC62 cells after 48 hrs by SRB assay; details: UACC-62, 48 h
NCI-H23 = assay: Growth inhibition of human NCI-H23 cells after 48 hrs by SRB assay; details: NCI-H23, 48 h
NCI-H460 = assay: Growth inhibition of human NCI-H460 cells after 48 hrs by SRB assay; details: NCI-H460, 48 h
DU-145 = assay: Growth inhibition of human DU145 cells after 48 hrs by SRB assay; details: DU-145, 48 h
CAKI-1 = assay: Growth inhibition of human Caki1 cells after 48 hrs by SRB assay; details: CAKI-1, 48 h
OVCAR-5 = assay: Growth inhibition of human OVCAR5 cells after 48 hrs by SRB assay; details: OVCAR-5, 48 h
786-0 = assay: Growth inhibition of human 786-0 cells after 48 hrs by SRB assay; details: 786-0, 48 h
RPMI-8226 = assay: Growth inhibition of human RPMI8226 cells after 48 hrs by SRB assay; details: RPMI-8226, 48 h
LOX IMVI = assay: Growth inhibition of human LOXIMVI cells after 48 hrs by SRB assay
NCI-H226 = assay: Growth inhibition of human NCI-H226 cells after 48 hrs by SRB assay; details: NCI-H226, 48 h
SK-MEL-28 = assay: Growth inhibition of human SK-MEL-28 cells after 48 hrs by SRB assay; details: SK-MEL-28, 48 h
SF-295 = assay: Growth inhibition of human SF295 cells after 48 hrs by SRB assay; details: SF-295, 48 h
U-251 = assay: Growth inhibition of human U251 cells after 48 hrs by SRB assay; details: U-251, 48 h
SK-MEL-2 = assay: Growth inhibition of human SK-MEL-2 cells after 48 hrs by SRB assay; details: SK-MEL-2, 48 h
OVCAR-8 = assay: Growth inhibition of human OVCAR8 cells after 48 hrs by SRB assay; details: OVCAR-8, 48 h
UACC-257 = assay: Growth inhibition of human UACC257 cells after 48 hrs by SRB assay; details: UACC-257, 48 h
BT-549 = assay: Growth inhibition of human BT549 cells after 48 hrs by SRB assay; details: BT-549, 48 h
PC-3 = assay: Growth inhibition of human PC3 cells after 48 hrs by SRB assay; details: PC-3, 48 h
RXF 393 = assay: Growth inhibition of human […] cells after 48 hrs by SRB assay; details: RXF 393, 48 h
T47D = assay: Growth inhibition of human T47D cells after 48 hrs by SRB assay
A498 = assay: Growth inhibition of human A498 cells after 48 hrs by SRB assay; details: A498, 48 h
SN12C = assay: Growth inhibition of human SN12C cells after 48 hrs by SRB assay
K562 = assay: Growth inhibition of human K562 cells after 48 hrs by SRB assay; details: K562, 48 h
HCT-15 = assay: Growth inhibition of human HCT15 cells after 48 hrs by SRB assay; details: HCT-15, 48 h
NCI-H522 = assay: Growth inhibition of human NCI-H522 cells after 48 hrs by SRB assay; details: NCI-H522, 48 h
IGROV-1 = assay: Growth inhibition of human IGROV1 cells after 48 hrs by SRB assay; details: IGROV-1, 48 h
[1] = Growth inhibition of human Hs 578T cells after 48 hrs by SRB assay
Malme-3M = assay: Growth inhibition of human MALME-3M cells after 48 hrs by SRB assay
KM12 = assay: Growth inhibition of human KM12 cells after 48 hrs by SRB assay; details: KM12, 48 h
UO-31 = assay: Growth inhibition of human UO31 cells after 48 hrs by SRB assay; details: UO-31, 48 h
HT-29 = assay: Growth inhibition of human HT-29 cells after 48 hrs by SRB assay; details: HT-29, 48 h
OVCAR-4 = assay: Growth inhibition of human OVCAR4 cells after 48 hrs by SRB assay; details: OVCAR-4, 48 h
NCI/ADR-RES = assay: Growth inhibition of human NCI/ADR-RES cells after 48 hrs by SRB assay
HCT-116 = assay: Growth inhibition of human HCT116 cells after 48 hrs by SRB assay; details: HCT-116, 48 h
NCI-H322M = assay: Growth inhibition of human NCI-H322M cells after 48 hrs by SRB assay
HCC 2998 = assay: Growth inhibition of human HCC2998 cells after 48 hrs by SRB assay; details: HCC 2998, 48 h
SK-MEL-5 = assay: Growth inhibition of human SK-MEL-5 cells after 48 hrs by SRB assay; details: SK-MEL-5, 48 h
HOP-92 = assay: Growth inhibition of human HOP92 cells after 48 hrs by SRB assay; details: HOP-92, 48 h
ACHN = assay: Growth inhibition of human ACHN cells after 48 hrs by SRB assay
HL-60(TB) = assay: Growth inhibition of human HL-60(TB) cells after 48 hrs by SRB assay; details: HL-60, 48 h
SF-268 = assay: Growth inhibition of human SF268 cells after 48 hrs by SRB assay; details: SF-268, 48 h
EKVX = assay: Growth inhibition of human EKVX cells after 48 hrs by SRB assay
MCF7 = assay: Growth inhibition of human MCF7 cells after 48 hrs by SRB assay; details: MCF7, 48 h
HOP-62 = assay: Growth inhibition of human HOP62 cells after 48 hrs by SRB assay; details: HOP-62, 48 h
MDA-MB-435 = assay: Growth inhibition of human MDA-MB-435 cells after 48 hrs by SRB assay; details: MDA-MB-435, 48 h
TK-10 = assay: Growth inhibition of human TK10 cells after 48 hrs by SRB assay; details: TK-10, 48 h
SNB-75 = assay: Growth inhibition of human SNB75 cells after 48 hrs by SRB assay; details: SNB-75, 48 h
CCRF-CEM = assay: Growth inhibition of human CCRF-CEM cells after 48 hrs by SRB assay

## Nc1nn(C(=O)Nc2c(F)cccc2F)c2ccccc12
M14
  GI50: 74.7 µM
SNB-19
  GI50: < 100 µM
SW-620
  GI50: 38.3 µM
MOLT-4
  GI50: 32.7 µM
A549
  GI50: 48.5 µM
MDA-MB-231
  GI50: 98.8 µM
SF-539
  GI50: 31.4 µM
SR
  GI50: 12.9 µM
SK-OV-3
  GI50: < 100 µM
COLO 205
  GI50: < 100 µM
OVCAR-3
  GI50: 65.7 µM
UACC-62
  GI50: 43.9 µM
NCI-H23
  GI50: 95.6 µM
NCI-H460
  GI50: 33.4 µM
DU-145
  GI50: 62.3 µM
CAKI-1
  GI50: 45.3 µM
OVCAR-5
  GI50: < 100 µM
786-0
  GI50: < 100 µM
RPMI-8226
  GI50: 16.1 µM
LOX IMVI
  GI50: 49.3 µM
NCI-H226
  GI50: 98.5 µM
SK-MEL-28
  GI50: 56.3 µM
SF-295
  GI50: 54.8 µM
U-251
  GI50: 96.1 µM
SK-MEL-2
  GI50: < 100 µM
OVCAR-8
  GI50: 44.2 µM
UACC-257
  GI50: 71.7 µM
BT-549
  GI50: 28.8 µM
PC-3
  GI50: < 100 µM
RXF 393
  GI50: 20.2 µM
T47D
  GI50: 68.7 µM
A498
  GI50: 31.4 µM
SN12C
  GI50: < 100 µM
K562
  GI50: < 100 µM
HCT-15
  GI50: 40.9 µM
NCI-H522
  GI50: 55.1 µM
IGROV-1
  GI50: 7.7 µM
[1]
  GI50: 73 µM
Malme-3M
  GI50: < 100 µM
KM12
  GI50: 86.2 µM
UO-31
  GI50: 18.6 µM
HT-29
  GI50: 74.6 µM
OVCAR-4
  GI50: 57.8 µM
NCI/ADR-RES
  GI50: 56.5 µM
HCT-116
  GI50: 34.8 µM
NCI-H322M
  GI50: < 100 µM
HCC 2998
  GI50: 95.8 µM
SK-MEL-5
  GI50: 39.7 µM
HOP-92
  GI50: 17.3 µM
ACHN
  GI50: 50.1 µM
HL-60(TB)
  GI50: 33.2 µM
SF-268
  GI50: 36.2 µM
EKVX
  GI50: 84 µM
MCF7
  GI50: 60 µM
HOP-62
  GI50: 51 µM
MDA-MB-435
  GI50: 54.9 µM
TK-10
  GI50: < 100 µM

## COc1ccc(NC(=O)n2nc(N)c3ccccc32)cc1OC
M14
  GI50: 64.9 µM
SNB-19
  GI50: > 100 µM
SNB-75
  GI50: 30.6 µM
CCRF-CEM
  GI50: 36.7 µM
SW-620
  GI50: > 100 µM
MOLT-4
  GI50: 39.4 µM
A549
  GI50: 45.8 µM
MDA-MB-231
  GI50: 53.6 µM
SF-539
  GI50: 95.9 µM
SR
  GI50: 29.3 µM
SK-OV-3
  GI50: > 100 µM
COLO 205
  GI50: 85.9 µM
OVCAR-3
  GI50: 92 µM
UACC-62
  GI50: 52.3 µM
NCI-H23
  GI50: 83.5 µM
NCI-H460
  GI50: 34.5 µM
DU-145
  GI50: 73.1 µM
CAKI-1
  GI50: > 100 µM
OVCAR-5
  GI50: 45.5 µM
786-0
  GI50: > 100 µM
RPMI-8226
  GI50: 21.1 µM
LOX IMVI
  GI50: 49.3 µM
NCI-H226
  GI50: 83.1 µM
SK-MEL-28
  GI50: > 100 µM
SF-295
  GI50: 37.6 µM
U-251
  GI50: 61.7 µM
SK-MEL-2
  GI50: 37.2 µM
OVCAR-8
  GI50: 39.7 µM
UACC-257
  GI50: 73.6 µM
BT-549
  GI50: 25.9 µM
PC-3
  GI50: 35.5 µM
RXF 393
  GI50: 95.2 µM
T47D
  GI50: 33 µM
A498
  GI50: 30.3 µM
SN12C
  GI50: > 100 µM
K562
  GI50: 41.2 µM
HCT-15
  GI50: 44.1 µM
NCI-H522
  GI50: 34.9 µM
IGROV-1
  GI50: 18.1 µM
[1]
  GI50: 43.3 µM
Malme-3M
  GI50: > 100 µM
KM12
  GI50: 67.9 µM
UO-31
  GI50: 28.5 µM
HT-29
  GI50: 48.2 µM
OVCAR-4
  GI50: 63.2 µM
NCI/ADR-RES
  GI50: 37.6 µM
HCT-116
  GI50: 43.5 µM
NCI-H322M
  GI50: > 100 µM
HCC 2998
  GI50: 61.1 µM
SK-MEL-5
  GI50: 27.9 µM
HOP-92
  GI50: 24.6 µM
ACHN
  GI50: 58.3 µM
HL-60(TB)
  GI50: 27.9 µM
SF-268
  GI50: 49.6 µM
EKVX
  GI50: 54.1 µM
MCF7
  GI50: 29.5 µM
HOP-62
  GI50: 75.2 µM
MDA-MB-435
  GI50: > 100 µM
TK-10
  GI50: 92.4 µM
